The record followed here is ChEMBL document CHEMBL3045514, “An efficient one-pot cyclization of quinoline thiosemicarbazones to quinolines derivatized with 1,3,4-thiadiazole as anticancer and anti-tubercular agents” (Med Chem Res, 2012).

Data set [1] concerns Mycobacterium tuberculosis. As to the kind of experiment: Antitubercular activity against Mycobacterium tuberculosis H37Rv at 25 ug/ml measured twice a week for 3 weeks by Ziehl-Neelsen staining. It is filed as functional, organism-based.
The species entered for data set [2] is Mus musculus. As to the kind of experiment: Toxicity in Mus musculus (mouse) assessed as irritation. It is filed as organism-based. The note with it: in vivo.
Data set [3] relates to Mycobacterium tuberculosis. As to the kind of experiment: Antitubercular activity against Mycobacterium tuberculosis H37Rv at 5 ug/ml measured twice a week for 3 weeks by Ziehl-Neelsen staining. It is filed as functional, organism-based.
The test system of data set [4] is HeLa. As to the kind of experiment: Cytotoxicity against Homo sapiens (human) HeLa cells assessed as cell mortality after 24 to 72 hr by inverted microscopic analysis. It is filed as functional.
The test system of data set [5] is Mycobacterium tuberculosis. The data set is described as follows: Antitubercular activity against Mycobacterium tuberculosis H37Rv at 10 ug/ml measured twice a week for 3 weeks by Ziehl-Neelsen staining. It is filed as functional, organism-based.
For data set [6], the system named is Mycobacterium tuberculosis. As to the kind of experiment: Antitubercular activity against Mycobacterium tuberculosis H37Rv measured twice a week for 3 weeks by Ziehl-Neelsen staining. It is filed as functional. Particulars: 504 h.

Values after ≈ are worked out from the molar mass of the structure shown. Active and inactive are the calls of the source.

With `COc1ccc2cc(C3SC(NC(C)=O)=NN3C(C)=O)c(Cl)nc2c1` (stereo not drawn), the outcome in data set [1] and in data set [5] was Active. The Activity result in data set [2] is “Non-toxic”; in data set [4], 15 µg/mL. In addition, the result in data set [3] was inactive.
On to `CC(=O)NC1=NN(C(C)=O)C(c2cc3ccc(C)cc3nc2Cl)S1` (stereo not drawn), for which the outcome in data set [1] and in data set [5] was Active. Besides, the results for the Activity result in data set [2] and in data set [4] were “Non-toxic” and 20 µg/mL, respectively. For the same compound, in data set [3], the outcome was inactive.
For `CC(=O)NC1=NN(C(C)=O)C(c2cc3ccccc3nc2Cl)S1` (stereo not drawn), the result in data set [1] and in data set [5] was Active. The Activity result in data set [2] is “Non-toxic”; in data set [4] it was 15 µg/mL. Further, the result in data set [3] was inactive.
`CC(=O)NC1=NN(C(C)=O)C(c2cc3cc(C)ccc3nc2Cl)S1` (stereo not drawn): the result in data set [1] and in data set [5] was Active. In addition, the figures for the Activity result in data set [2] and in data set [4] were “Non-toxic” and 10 µg/mL, respectively. In addition, the outcome in data set [3] was inactive.
As for `COc1cccc2cc(C3SC(NC(C)=O)=NN3C(C)=O)c(Cl)nc12` (stereo not drawn), the result in data set [1] and in data set [5] was Active. Further, the MIC – broadly, the smallest concentration in the dilution series that meets the test's criterion for growth inhibition – in data set [6] worked out at 5 µg/mL (≈ 13.2 µM). For the same compound, the Activity entry in data set [2] was “Non-toxic”; in data set [4] it was 15 µg/mL. Also, the result in data set [3] was inactive.
In the case of `CC(=O)NC1=NN(C(C)=O)C(c2cc3cc(Br)ccc3nc2Cl)S1` (stereo not drawn), the outcome in data set [1] and in data set [5] was Active. Besides, the Activity result in data set [2] is “Non-toxic”; in data set [4], 20 µg/mL. Moreover, the result in data set [3] was inactive.
In the case of `CN[C@@H]1[C@H](O[C@H]2[C@H](O[C@H]3[C@H](O)[C@@H](O)[C@H](N=C(N)N)[C@@H](O)[C@@H]3N=C(N)N)O[C@@H](C)[C@]2(O)C=O)O[C@@H](CO)[C@H](O)[C@H]1O` [STREPTOMYCIN], the lowest concentration to inhibit growth in data set [6] (MIC) was 10 µg/mL (≈ 17.2 µM).
As to `COc1ccc2nc(Cl)c(C3SC(NC(C)=O)=NN3C(C)=O)cc2c1` (stereo not drawn), the outcome in data set [1] and in data set [5] was Active. Besides, the Activity entry was “Non-toxic” in data set [2] and 10 µg/mL in data set [4]. For the same compound, the result in data set [3] was inactive.
For the compound `CC(=O)NC1=NN(C(C)=O)C(c2cc3ccc(Cl)cc3nc2Cl)S1` (stereo not drawn), the result in data set [1] and in data set [5] was Active. Also, the Activity result in data set [2] was “Non-toxic”; in data set [4], 20 µg/mL. Besides, the result in data set [3] was inactive.
Regarding `COc1cc2cc(C3SC(NC(C)=O)=NN3C(C)=O)c(Cl)nc2cc1OC` (stereo not drawn), the result in data set [1] and in data set [5] was Active. In addition, the Activity entry was “Non-toxic” in data set [2] and 10 µg/mL in data set [4]. The result in data set [3] was inactive.
On to `CC(=O)NC1=NN(C(C)=O)C(c2cc3cccc(C)c3nc2Cl)S1` (stereo not drawn), for which the result in data set [1] and in data set [5] was Active. 5 µg/mL (≈ 13.8 µM) was the least that counted as inhibitory in data set [6] (MIC). The Activity entry is “Non-toxic” in data set [2] and 25 µg/mL in data set [4]. The result in data set [3] was inactive.
